The results in this text go back to ChEMBL document CHEMBL4020739, “Investigation of the structural requirements of K-Ras(G12D) selective inhibitory peptide KRpep-2d using alanine scans and cysteine bridging” (Bioorg Med Chem Lett, 2017).

Active and inactive are the calls of the source. The calls are words filed in the database; no cut-off is given here. Peptide text beside a SMILES is read from it.

For assay [1], the system named is A-427. Description: Antiproliferative activity against human A427 cells harboring K-Ras G12D mutant assessed as cell proliferation at 10 uM by CellTitre-Glo assay relative to control. As to conditions: read-out: Activity. The assay is classed as functional.
For assay [2], the system named is A-427. Description: Antiproliferative activity against human A427 cells harboring K-Ras G12D mutant assessed as cell proliferation at 30 uM by CellTitre-Glo assay relative to control. The assay is classed as functional. Particulars: read-out: Activity.
The test system of another assay is A549. Description: Antiproliferative activity against human A549 cells harboring K-Ras G12C mutant assessed as cell proliferation at 10 to 30 uM by CellTitre-Glo assay. The assay is classed as functional, cell-based.
The target of assay [3] is GTPase KRas (Homo sapiens, UniProt P01116). Description: Inhibition of biotinylated wild-type K-Ras (unknown origin) assessed as inhibition of human SOS1 (564 to 1049 residues)-mediated BODIPY-GDP-GTP exchange after 1 hr by TR-FRET assay. On the technique in general: In TR-FRET formats the signal depends on donor and acceptor labels being close together.
For assay [4], the target named is GTPase KRas (Homo sapiens, UniProt P01116, G12C). Description: Inhibition of biotinylated K-Ras G12C mutant (unknown origin) assessed as reduction in SOS1 (564 to 1049 residues)-mediated BODIPY-GDP-GTP exchange after 1 hr by TR-FRET assay.
Assay [5] deals with T1, GTPase KRas (Homo sapiens, UniProt P01116, G12D). Description: Inhibition of biotinylated K-Ras G12D mutant (unknown origin) assessed as reduction in SOS1 (564 to 1049 residues)-mediated BODIPY-GDP-GTP exchange after 1 hr by TR-FRET assay.
The target in assay [6] is T1, GTPase KRas. Description: Inhibition of biotinylated K-Ras G12D mutant (unknown origin) assessed as reduction in SOS1 (564 to 1049 residues)-mediated BODIPY-GDP-GTP exchange after 1 hr in presence of DTT by TR-FRET assay.
The species named for assay [7] is Homo sapiens. Description: Selectivity ratio of IC50 for inhibition of biotinylated wild type K-Ras (unknown origin) to IC50 for inhibition of biotinylated K-Ras G12D mutant (unknown origin).
For assay [8], the species on record is Homo sapiens. Description: Selectivity ratio of IC50 for inhibition of biotinylated K-Ras G12C mutant (unknown origin) to IC50 for inhibition of biotinylated K-Ras G12D mutant (unknown origin).

`CC[C@H](C)[C@@H]1NC(=O)[C@H](Cc2ccc(O)cc2)NC(=O)[C@H](CC(C)C)NC(=O)[C@@H]2CCCN2C(=O)[C@@H](NC(=O)[C@H](CCCNC(=N)N)NC(=O)[C@H](CCCNC(=N)N)NC(=O)[C@H](CCCNC(=N)N)NC(=O)[C@H](CCCNC(=N)N)NC(C)=O)CSCSC[C@@H](C(=O)N[C@@H](CCCNC(=N)N)C(=O)N[C@@H](CCCNC(=N)N)C(=O)N[C@@H](CCCNC(=N)N)C(=O)N[C@@H](CCCNC(=N)N)C(N)=O)NC(=O)[C@H](C(C)C)NC(=O)[C@@H]2CCCN2C(=O)[C@H](CC(=O)O)NC(=O)[C@H](Cc2ccc(O)cc2)NC(=O)[C@H](CO)NC1=O`: the growth at 10 µM in the assay on A-427 [1] amounted to 91%. Moreover, the growth at 30 µM with A-427 [2] was determined as 69.9%. Further, the outcome in the assay on A549 was inactive.
As usually defined, the IC50 is the midpoint of a concentration-inhibition curve. For `CC[C@H](C)[C@@H]1NC(=O)[C@H](Cc2ccc(O)cc2)NC(=O)[C@H](CC(C)C)NC(=O)[C@@H]2CCCN2C(=O)[C@@H](NC(=O)[C@H](CCCNC(=N)N)NC(=O)[C@H](CCCNC(=N)N)NC(=O)[C@H](CCCNC(=N)N)NC(=O)[C@H](CCCNC(=N)N)NC(C)=O)CSSC[C@@H](C(=O)N[C@@H](CCCNC(=N)N)C(=O)N[C@@H](CCCNC(=N)N)C(=O)N[C@@H](CCCNC(=N)N)C(=O)N[C@@H](CCCNC(=N)N)C(N)=O)NC(=O)[C@H](C)NC(=O)[C@@H]2CCCN2C(=O)[C@H](CC(=O)O)NC(=O)[C@H](Cc2ccc(O)cc2)NC(=O)[C@H](CO)NC1=O` (HELM PEPTIDE1{[ac].R.R.R.R.C.P.L.Y.I.S.Y.D.P.A.C.R.R.R.R.[am]}$PEPTIDE1,PEPTIDE1,6:R3-16:R3$$$V2.0), the IC50 on GTPase KRas [3] came out at 105 nM; on GTPase KRas [4], 44 nM; on GTPase KRas [5], 7.5 nM; at GTPase KRas [6], 35.8 nM. The figures for the Ratio IC50 in the assay filed under Homo sapiens [7] and in the assay listed under Homo sapiens [8] were 14 and 6, respectively.
